Measured values as given in patent US20240270821A1, “GIP/GLP1/GCG TRI-RECEPTOR AGONISTS AND USES THEREOF” (priority 2023, published 2024).
Where two headings read alike, the source gives them in different places. Starred links: 1 amine or outer side, 2 acyl side, 3 side chain; linkers in the order of their positions; H or OH if unused. Non-standard residues stand in square brackets, D forms with d. Residues, ends and D or L forms follow the SMILES beside them. Groups on a side chain read outwards from the residue. No end group written: not given here. *: point of attachment. C18 diacid = O=C(O)CCCCCCCCCCCCCCCCC(=O)*; αMePhe(2-F) = C[C@](N)(Cc1ccccc1F)C(=O)O; γGlu = O=C(O)[C@H](CCC(=O)[*:2])N[*:1]; αMe4Pal = C[C@](N)(Cc1ccncc1)C(=O)O; αMeY = C[C@](N)(Cc1ccc(O)cc1)C(=O)O; αMeF = C[C@](N)(Cc1ccccc1)C(=O)O; 4Pal = N[C@@H](Cc1ccncc1)C(=O)O; αMeL = CC(C)C[C@](C)(N)C(=O)O; αMeS = C[C@](N)(CO)C(=O)O; Orn = NCCC[C@H](N)C(=O)O; AEEA = NCCOCCOCC(=O)O; Aib = CC(C)(N)C(=O)O

Tests used:
Assay type in all cases: cell-based
[1] = biological target: human GcgR (Homo sapiens, UniProt P47871); test: Functional cAMP activity in the presence of 1% HSA; conditions: read-out: cAMP Rel EC50, hGcgR
Sequence of human GcgR (P47871 26-477): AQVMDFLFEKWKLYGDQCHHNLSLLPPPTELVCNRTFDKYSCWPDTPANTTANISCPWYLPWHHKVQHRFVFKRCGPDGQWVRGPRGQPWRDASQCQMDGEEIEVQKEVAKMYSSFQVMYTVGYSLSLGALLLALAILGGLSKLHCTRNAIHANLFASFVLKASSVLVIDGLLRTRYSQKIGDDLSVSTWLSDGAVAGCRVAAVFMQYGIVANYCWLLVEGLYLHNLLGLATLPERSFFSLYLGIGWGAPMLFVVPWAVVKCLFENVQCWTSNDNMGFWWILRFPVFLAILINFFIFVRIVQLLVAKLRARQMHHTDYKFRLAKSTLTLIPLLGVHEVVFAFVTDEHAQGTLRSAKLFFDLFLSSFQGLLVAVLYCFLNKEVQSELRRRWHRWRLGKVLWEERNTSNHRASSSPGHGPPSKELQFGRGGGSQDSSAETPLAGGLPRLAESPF

[2] = biological target: hGcgR (Homo sapiens, UniProt P47871); test: Functional cAMP activation in the presence of 0.1% casein (no HSA); conditions: read-out: Relative cAMP EC50, hGcgR;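 further: intracellular cAMP rise after 30 min at 37 °C, read by HTRF against a cAMP standard curve, scaled from buffer only (0%) to maximal control ligand response (100%)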
Sequence of hGcgR (P47871 26-477): as above

[3] = biological target: T1, hGIPR (Homo sapiens, UniProt P48546); test: Functional cAMP activity in the presence of 1% HSA; conditions: read-out: cAMP Rel EC50, hGIPR
T1 sequence (P48546 22-466): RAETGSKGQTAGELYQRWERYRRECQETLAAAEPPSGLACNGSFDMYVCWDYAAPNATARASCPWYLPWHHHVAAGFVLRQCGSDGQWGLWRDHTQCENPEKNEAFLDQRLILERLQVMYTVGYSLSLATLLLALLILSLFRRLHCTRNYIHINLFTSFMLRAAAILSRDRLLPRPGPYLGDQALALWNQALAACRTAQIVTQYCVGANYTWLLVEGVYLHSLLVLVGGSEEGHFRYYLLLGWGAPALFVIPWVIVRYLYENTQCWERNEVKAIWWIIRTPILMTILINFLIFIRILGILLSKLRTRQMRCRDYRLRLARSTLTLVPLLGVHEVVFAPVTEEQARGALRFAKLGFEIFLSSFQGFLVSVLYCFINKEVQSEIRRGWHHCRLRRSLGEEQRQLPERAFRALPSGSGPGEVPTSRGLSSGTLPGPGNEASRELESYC

[4] = biological target: T1, hGIPR; test: Functional cAMP activation in the presence of 0.1% casein (no HSA); conditions: read-out: Relative cAMP EC50, hGIPR;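 on Relative cAMP EC50, hGIPR: intracellular cAMP rise after 30 min at 37 °C read by HTRF against a standard curve, scaled between buffer alone (0%) and top control ligand concentration (100%), four-parameter fit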;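 on Relative cAMP EC50, hGLP-1R: intracellular cAMP rise after 30 min at 37 °C read by HTRF, normalized between buffer only (0%) and maximal control ligand (100%), four-parameter variable-slope fit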
[5] = biological target: T2, hGLP-1R (Homo sapiens, UniProt P43220); test: Functional cAMP activity in the presence of 1% HSA; conditions: read-out: cAMP Rel EC50, hGLP-1R
T2 sequence (P43220 24-463): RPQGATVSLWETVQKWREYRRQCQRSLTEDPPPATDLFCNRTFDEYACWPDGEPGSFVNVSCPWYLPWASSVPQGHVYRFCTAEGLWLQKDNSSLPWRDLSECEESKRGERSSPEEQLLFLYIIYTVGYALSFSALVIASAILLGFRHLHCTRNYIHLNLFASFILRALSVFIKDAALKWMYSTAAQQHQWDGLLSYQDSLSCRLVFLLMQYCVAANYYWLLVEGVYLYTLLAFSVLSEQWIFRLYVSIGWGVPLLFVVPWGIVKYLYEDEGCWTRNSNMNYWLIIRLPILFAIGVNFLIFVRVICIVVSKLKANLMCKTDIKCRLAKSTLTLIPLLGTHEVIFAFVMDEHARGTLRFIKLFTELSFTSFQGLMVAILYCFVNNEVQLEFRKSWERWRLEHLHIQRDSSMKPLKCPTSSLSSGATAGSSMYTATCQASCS

[6] = biological target: T2, hGLP-1R; test: Functional cAMP activation in the presence of 0.1% casein (no HSA); conditions: read-out: Relative cAMP EC50, hGLP-1R;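 on Relative cAMP EC50, hGIPR: intracellular cAMP rise after 30 min at 37 °C read by HTRF against a standard curve, scaled between buffer alone (0%) and top control ligand concentration (100%), four-parameter fit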;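 on Relative cAMP EC50, hGLP-1R: intracellular cAMP rise after 30 min at 37 °C read by HTRF, normalized between buffer only (0%) and maximal control ligand (100%), four-parameter variable-slope fit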
[7] = in the presence of 0.1% casein (no HSA), geometric mean

| EC50 [1] [nM] | EC50 [2] [nM] | EC50 [3] [nM] | EC50 [4] [nM] | EC50 [5] [nM] | EC50 [6] [nM] | EC50 [2, 7] [nM] | EC50 [4, 7] [nM] | EC50 [6, 7] [nM] | Compound |
| --- | --- | --- | --- | --- | --- | --- | --- | --- | --- |
| 247 |  | 8 |  | 402 |  | 2.27 | 0.103 | 3.92 | Y[Aib]QGTFTSD[4Pal]S[Orn][αMeL]LDKK([γGlu-γGlu-C18 diacid])AQ[αMe4Pal]AFIE[αMe4Pal]LIE[Aib]GPSSGEPPPSGS-NH2 [Example 989] |
| 1090 | 9.71 | 1.81 | 0.0177 | 11.3 | 0.214 |  |  |  | CC[C@H](C)[C@H](NC(=O)[C@H](CC(C)C)NC(=O)[C@](C)(Cc1ccc(O)cc1)NC(=O)[C@@H](CCC(=O)O)NC(=O)[C@@H](NC(=O)[C@H](Cc1ccccc1)NC(=O)[C@H](CCCN)NC(=O)C(C)(C)NC(=O)[C@H](CCC(N)=O)NC(=O)[C@H](C)NC(=O)[C@H](CCCCNC(=O)CC[C@H](NC(=O)CC[C@H](NC(=O)CCCCCCCCCCCCCCCCC(=O)O)C(=O)O)C(=O)O)NC(=O)[C@H](CCCN)NC(=O)[C@H](CC(=O)O)NC(=O)[C@H](CC(C)C)NC(=O)[C@](C)(CC(C)C)NC(=O)[C@H](CCC(=O)O)NC(=O)[C@](C)(CO)NC(=O)[C@H](Cc1ccncc1)NC(=O)[C@H](CC(=O)O)NC(=O)[C@H](CO)NC(=O)[C@@H](NC(=O)[C@](C)(Cc1ccccc1F)NC(=O)[C@@H](NC(=O)CNC(=O)[C@H](CCC(N)=O)NC(=O)C(C)(C)NC(=O)[C@@H](N)Cc1ccc(O)cc1)[C@@H](C)O)[C@@H](C)O)[C@@H](C)CC)C(=O)N[C@@H](CCC(=O)O)C(=O)NCC(=O)NCC(=O)N1CCC[C@H]1C(=O)N[C@@H](CO)C(=O)N[C@@H](CO)C(=O)NCC(=O)N[C@@H](CCC(=O)O)C(=O)N1CCC[C@H]1C(=O)N1CCC[C@H]1C(=O)N1CCC[C@H]1C(=O)N[C@@H](CCC(=O)O)C(N)=O [Example 447] (H-Y[Aib]QGT[αMePhe(2-F)]TSD[4Pal][αMeS]E[αMeL]LD[Orn]K([γGlu-γGlu-C18 diacid])AQ[Aib][Orn]FI[dE][αMeY]LIEGGPSSGEPPPE-NH2) |
| 282 |  | 0.768 |  | 60.7 |  | 2.08 | 0.00962 | 0.572 | H-Y[Aib]QGT[αMeF]TSD[4Pal][αMeS]I[αMeL]LD[Orn]K([γGlu-γGlu-C18 diacid])AQ[αMe4Pal]EFI[dE][αMeY]LIEGGPSSGEPPPSGGGE-NH2 [Example 1175] |
| 127 |  | 3.16 |  | 53.6 |  | 1.38 | 0.0484 | 0.769 | H-Y[Aib]QGTFTSD[4Pal][αMeS]Q[αMeL]LD[Orn]K([dE-γGlu-C18 diacid])AQ[αMe4Pal]QFIQ[αMeY]LIE[Aib]GPSSGEPPPSGGGE-NH2 [Example 1183] |
| 1240 |  | 3.73 |  | 44.5 |  | 13.3 | 0.0441 | 0.641 | H-Y[Aib]QGTFTSD[4Pal]SQ[αMeL]LD[Orn]K([dE-γGlu-C18 diacid])AQ[αMe4Pal]AFIQ[αMeY]LIA[Aib]GPSSGEPPPSGGGE-NH2 [Example 1130] |
| 195 | 4.25 | 4.05 | 0.0971 | 55.6 | 1.12 |  |  |  | H-Y[Aib]QGT[αMePhe(2-F)]TSD[4Pal][αMeS]I[αMeL]LD[Orn]K([γGlu-γGlu-C18 diacid])AQ[Aib][Orn]FI[dE][αMeY]LAEGGPSSGEPPPSGEEE-NH2 [Example 592] |
| 1170 | 20.3 | 1.4 | 0.0392 | 86.5 | 1.76 |  |  |  | H-Y[Aib]QGT[αMePhe(2-F)]TSD[4Pal]SI[αMeL]LD[Orn]K([AEEA-γGlu-C18 diacid])AQ[αMe4Pal]EFI[dE][αMeY]LQEGGPSSGEPPPSGS-NH2 [Example 648] |
| 506 |  | 7.83 |  | 230 |  | 3.45 | 0.0648 | 1.33 | H-Y[Aib]QGTFTSD[4Pal]SQ[αMeL]LD[Orn]K([γGlu-γGlu-C18 diacid])AQ[αMe4Pal]AFIEYLIA[Aib]GPSSGEPPPSGSEE-NH2 [Example 1092] |
| 1530 |  | 59.8 |  | 271 |  | 9.21 | 0.347 | 1.54 | H-Y[Aib]QGTFTSD[4Pal]SK[αMeL]LDKK([AEEA-γGlu-C18 diacid])AQ[Aib]AFIEYLIE[dA]GESSGEPPPSGS-NH2 [Example 284] |

| Compound | EC50 [1] [nM] | EC50 [2] [nM] | EC50 [3] [nM] | EC50 [4] [nM] | EC50 [5] [nM] | EC50 [6] [nM] | EC50 [2, 7] [nM] | EC50 [4, 7] [nM] | EC50 [6, 7] [nM] |
| --- | --- | --- | --- | --- | --- | --- | --- | --- | --- |
| CC[C@H](C)[C@H](NC(=O)[C@H](Cc1ccccc1)NC(=O)[C@H](C)NC(=O)C(C)(C)NC(=O)[C@H](CCC(N)=O)NC(=O)[C@H](C)NC(=O)[C@H](CCCCNC(=O)COCCOCCNC(=O)CC[C@H](NC(=O)CCCCCCCCCCCCCCCCC(=O)O)C(=O)O)NC(=O)[C@H](CCCCN)NC(=O)[C@H](CC(=O)O)NC(=O)[C@H](CC(C)C)NC(=O)[C@](C)(CC(C)C)NC(=O)[C@@H](NC(=O)[C@H](CO)NC(=O)[C@H](Cc1ccc(O)cc1)NC(=O)[C@H](CC(=O)O)NC(=O)[C@H](CO)NC(=O)[C@@H](NC(=O)[C@](C)(Cc1ccccc1F)NC(=O)[C@@H](NC(=O)CNC(=O)[C@H](CCC(N)=O)NC(=O)C(C)(C)NC(=O)[C@@H](N)Cc1ccc(O)cc1)[C@@H](C)O)[C@@H](C)O)[C@@H](C)CC)C(=O)N[C@@H](CCC(=O)O)C(=O)N[C@@H](Cc1ccc(O)cc1)C(=O)N[C@@H](CC(C)C)C(=O)N[C@@H](CCC(=O)O)C(=O)N[C@@H](CCC(=O)O)C(=O)NCC(=O)NCC(=O)N1CCC[C@H]1C(=O)N[C@@H](CO)C(=O)N[C@@H](CO)C(=O)NCC(=O)N[C@@H](C)C(=O)N1CCC[C@H]1C(=O)N1CCC[C@H]1C(=O)N1CCC[C@H]1C(=O)N[C@@H](CO)C(=O)N[C@@H](CCC(=O)O)C(=O)NCC(N)=O [Example 431] | 352 | 3.32 | 3.73 | 0.0157 | 35.2 | 0.392 |  |  |  |
| Y[Aib]QGT[αMePhe(2-F)]TSD[4Pal][αMeS]I[αMeL]LD[Orn]K([AEEA-γGlu-C18 diacid])AQ[αMe4Pal]EFI[dE][αMeY]LIEGGPSSGAPPPESE-NH2 [Example 1146] | 198 |  | 0.825 |  | 40.1 |  | 1.22 | 0.00628 | 0.281 |
| H-Y[Aib]QGTFTSD[4Pal]S[Orn][αMeL]LD[Orn]K([Glu-Glu-γGlu-C18 diacid])AQ[Aib]AFIE[αMeY]LLEGGPSSGAPPPSGSEE-NH2 [Example 1067] | 1860 |  | 86.4 |  | 2610 |  | 12.6 | 0.471 | 17.6 |
| H-Y[Aib]QGTFTSD[4Pal]SK[αMeL]LDKK([AEEA-γGlu-C18 diacid])AQ[αMe4Pal]AFIE[αMe4Pal]LIE[Aib]GPSSGAPPPSGS-NH2 [Example 916] | 158 |  | 4.78 |  | 166 |  | 1.09 | 0.0715 | 1.38 |
| H-Y[Aib]QGTFTSD[4Pal]SK[αMeL]LDKK([AEEA-γGlu-C18 diacid])AQ[Aib]AFIEYLIE[Aib]GPSSGAPPPSGS-NH2 [Example 801] | 1200 |  | 18.1 |  | 133 |  | 5.51 | 0.147 | 0.938 |
| H-Y[Aib]QGTFTSD[4Pal]SQ[αMeL]LDKK([AEEA-γGlu-C18 diacid])AQ[αMe4Pal]AFIEYLIE[Aib]GPSSGAPPPSG[4Pal]-NH2 [Example 835] | 558 |  | 16.8 |  | 274 |  | 3.83 | 0.382 | 2.84 |
